# Assay results from patent US7655392B2, “Quenching methods for red blood cell inactivation process” (priority 2004, dated 2010).
# Several values for one entry are separate records, joined by “and”; a condition that tells them apart may be missing. Identical values can stand only once.
# Tests used:
# [1] = test system: Staphylococcus epidermidis; experiment: Inactivation of Staphylococcus epidermidis in RBC (colony count); conditions: for Change in Log titer: initial RBC titer 6.5
# Protocol: Whole blood (Blood Source, Sacramento, Calif.) was used to prepare a red blood cell (RBC) composition by centrifuging to provide packed RBC (34 mL of approximately 90% hematocrit), then adding 17 mL Erythrosol to a hematocrit of approximately 60%. Erythrosol is a red blood cell additive (Baxter Healthcare Corp., Deerfield, Ill.) that may be prepared by combining sodium citrate dihydrate (7.82 g); sodium acid phosphate dihydrate (0.73 g); sodium phosphate dihydrate (3.03 g); adenine (0.22 g); mannitol (7.74 g); and glucose (9 g) in 1 liter of distilled water. The bacterial preparation was then added ( 1/100th of the total volume) to the RBC/Erythrosol to provide contaminated RBC. The contaminated RBC was divided into several samples and treated according to Table 2, where PIC-1 is β-alanine, N-(acridin-9-yl), 2-[bis(2-chloroethyl)amino]ethyl ester. The PIC-1 and glutathione (Aldrich, St. Louis, Mo.) were dissolved in a solution of 8% dextrose monohydrate at about 15× the desired concentration in the final red blood cell composition when added together, or 30× when added separately. […] For separate addition using 20 mM neutralized glutathione, PIC-1 is prepared by dissolving 7.6 mg in 2.5 mL of 8% dextrose, glutathione is prepared by dissolving 460 mg in 1.9 mL of 8% dextrose and mixing with 0.6 mL of 5N NaOH, then adding 165 μL of each solution to 4.67 mL RBC in the appropriate order. Following treatment, the samples were incubated for 2 hours, and 100 μL of each was serially diluted and plated on LB plates. These were incubated overnight at 37° C. in order to assess bacterial growth. The bacterial titer was determined by counting colonies on the plates and based on the dilution of the plate, the titer was determined. For example, with 10-fold serial dilutions, 30 colonies counted on the 5th dilution of the original solution, where 0.1 mL are plated, would indicate an initial titer of (30×10^5)/0.1=3×10^7, or 7.47 log. […] Note that for most samples in Table 2A the PIC-1 and glutathione were formulated together. […] The study was repeated with sequential addition of the two components, as indicated in Table 2B (time delay of 0 indicates they were added in the same solution).
# Additional studies were done using S. epidermidis, where the overnight culture was used without dilution. […] PIC-1 is at 0.2 mM in all samples.
# For these samples, the NaOH stock was prepared at 10N and appropriate volumes of the various components were used following the procedures above. Standard conditions and/or 20 mM neutralized glutathione (GSH) were run for comparison.
# [2] = pH of quencher stock and of RBC mixture; type: physicochemical; conditions: for pH of stock quencher: room temperature
# Protocol: The effect of various quenching conditions on the pH of a red blood cell composition was determined for various treatment conditions. The quencher solutions were prepared at a concentration of 600 mM in 8% dextrose monohydrate. […] Glutathione was assessed at 2 mM (acidic) or 20 mM (2 eq. of base). […] The pH of the quencher solution, either unmodified or neutralized, was measured using a standard Epoxy Calomel electrode (Beckman Instruments) at room temperature. […] The samples were mixed and the pH at room temperature was measured using the same electrode as described above.
# In these, the appropriate amount of 600 mM stock was added, mixed with an appropriate volume of 8% dextrose to provide the same volume addition to each RBC sample where in one study, with varied glutathione concentrations, the pH was measured after adding glutathione and after adding PIC-1. […] Similar samples were also assessed for the inactivation of S. epidermidis. […] For gel card analysis, after incubation, the RBC were washed in BBS and were diluted in BBS to a final hematocrit of 4%. A 25 μL aliquot of each was mixed with 15 μL of rabbit polyclonal anti-acridine sera diluted either 1:4 or 1:100 in BBS and the mixture was incubated at 37° C. for 30 minutes. The cells were subsequently washed with 1.5 mL BBS. After washing was complete, the cells were mixed with goat anti-rabbit Fab′2 fragment anti H+L chains (1:4 dilution in PBS) and incubated at 37° C. for 30 minutes.
# [3] = 0.2 mM PIC-1, then 20 mM glutathione+2 eq base after 1 min
# [4] = 0.2 mM PIC-1, then 20 mM glutathione+2 eq base after 5 min
# [5] = 0.2 mM PIC-1, then 20 mM glutathione+2 eq base after 10 min
# [6] = 0.2 mM PIC-1, then 20 mM glutathione+2 eq base after 20 min
# [7] = 0.2 mM PIC-1 and 2 mM glutathione, 0 eq base, simultaneous
# [8] = 0.2 mM PIC-1 and 20 mM glutathione, 0 eq base, simultaneous
# [9] = 20 mM glutathione+2 eq base, then 0.2 mM PIC-1 after 1 min
# [10] = 20 mM glutathione+2 eq base, then 0.2 mM PIC-1 after 10 min
# [11] = Table 5C: 0.2 mM PIC-1+2 mM GSH, 0 eq base, no delay
# [12] = Table 5C: 5 mM Cys+1 eq base, then 0.2 mM PIC-1 after 10 min
# [13] = Table 5C: 10 mM Cys+1 eq base, then 0.2 mM PIC-1 after 10 min
# [14] = Table 5C: 20 mM Cys+1 eq base, then 0.2 mM PIC-1 after 10 min
# [15] = Table 5C: 20 mM GSH+2 eq base, then 0.2 mM PIC-1 after 10 min
# [16] = Table 5C: […] Cys+1 eq base, then 0.2 mM PIC-1 after 10 min
compound,measurement,setting,value
O=C(CCNc1c2ccccc2nc2ccccc12)OCCN(CCCl)CCCl [PIC-1],Log S. epidermidis reduction,[1]; [3],6.70 Log
same,Log S. epidermidis titer,[1]; [3],−0.08 Log
same,Log S. epidermidis reduction,[1]; [4],6.70 Log
same,Log S. epidermidis titer,[1]; [4],−0.08 Log
same,Log S. epidermidis reduction,[1]; [5],6.70 Log
same,Log S. epidermidis titer,[1]; [5],−0.08 Log
same,Log S. epidermidis reduction,[1]; [6],6.70 Log
same,Log S. epidermidis titer,[1]; [6],−0.08 Log
same,Log S. epidermidis reduction,[1]; [7],6.70 Log
same,Log S. epidermidis titer,[1]; [7],−0.08 Log
same,Log S. epidermidis reduction,[1]; [8],0.22 Log
same,Log S. epidermidis titer,[1]; [8],6.40 Log
same,Log S. epidermidis reduction,[1]; [9],6.10 Log
same,Log S. epidermidis titer,[1]; [9],0.52 Log
same,Log S. epidermidis reduction,[1]; [10],5.92 Log
same,Log S. epidermidis titer,[1]; [10],0.70 Log
same,inactivation of S. epidermidis,"[1]; 20 mM neutralized glutathione as quencher, 0.2 mM PIC-1",not significantly reduced
same,Log S. epidermidis reduction,[1]; [11],7.2 Log
same,Log S. epidermidis titer,[1]; [11],0 Log
same,Log S. epidermidis reduction,[1]; [12],7.2 Log
same,Log S. epidermidis titer,[1]; [12],0 Log
same,Log S. epidermidis reduction,[1]; [13],4.9 Log
same,Log S. epidermidis titer,[1]; [13],2.3 Log
same,Log S. epidermidis reduction,[1]; [14],4.0 Log
same,Log S. epidermidis titer,[1]; [14],3.2 Log
same,Log S. epidermidis reduction,[1]; [15],7.2 Log
same,Log S. epidermidis titer,[1]; [15],0 Log
same,Log S. epidermidis reduction,[1]; [16],7.2 Log
same,Log S. epidermidis titer,[1]; [16],0 Log
same,Change in Log titer,"[1]; 2 mM GSH, 1 eq. base, 0.2 mM PIC-1",6.5 Log
same,Change in Log titer,"[1]; 2 mM GSH, 2 eq. base, 0.2 mM PIC-1",6.5 Log
same,Change in Log titer,"[1]; 2 mM GSH, no added base, 0.2 mM PIC-1",6.5 Log
same,Change in Log titer,"[1]; 5 mM GSH, 1 eq. base, 0.2 mM PIC-1",6.5 Log
same,Change in Log titer,"[1]; 5 mM GSH, 2 eq. base, 0.2 mM PIC-1",6.5 Log
same,Change in Log titer,"[1]; 5 mM GSH, no added base, 0.2 mM PIC-1",6.5 Log
same,Change in Log titer,"[1]; 10 mM GSH, 1 eq. base, 0.2 mM PIC-1",6.5 Log
same,Change in Log titer,"[1]; 10 mM GSH, 2 eq. base, 0.2 mM PIC-1",6.5 Log
same,Change in Log titer,"[1]; 10 mM GSH, no added base, 0.2 mM PIC-1",2.9 Log
same,Change in Log titer,"[1]; 20 mM GSH, 1 eq. base, 0.2 mM PIC-1",6.5 Log
same,Change in Log titer,"[1]; 20 mM GSH, 2 eq. base, 0.2 mM PIC-1",6.5 Log
same,Change in Log titer,"[1]; 20 mM GSH, no added base, 0.2 mM PIC-1",2.5 Log
"N[C@@H](CCC(=O)N[C@@H](CS)C(=O)NCC(=O)O)C(=O)O [glutathione, γ-L-glutamyl-L-cysteinyl-glycine]",pH of stock quencher,[2]; 600 mM in 8% dextrose + 1 eq. base,6.1
same,pH of stock quencher,[2]; 600 mM in 8% dextrose + 2 eq. base,9.5 and 9.2
same,pH of stock quencher,"[2]; 600 mM in 8% dextrose, no base added",2.82 and 3.0
same,pH of mixture Post quencher,[2]; RBC + 2 mM acidic glutathione,6.7
same,pH of mixture Final,[2]; RBC + 2 mM acidic glutathione + 0.2 mM PIC-1,6.7
same,pH of mixture Post quencher,[2]; RBC + 2 mM glutathione + 1 eq. base,6.8
same,pH of mixture Final,[2]; RBC + 2 mM glutathione + 1 eq. base + 0.2 mM PIC-1,6.8
same,pH of mixture Post quencher,[2]; RBC + 2 mM glutathione + 2 eq. base,6.8
same,pH of mixture Final,[2]; RBC + 2 mM glutathione + 2 eq. base + 0.2 mM PIC-1,6.8
same,pH of mixture Post quencher,[2]; RBC + 5 mM acidic glutathione,6.6
same,pH of mixture Final,[2]; RBC + 5 mM acidic glutathione + 0.2 mM PIC-1,6.6
same,pH of mixture Post quencher,[2]; RBC + 5 mM glutathione + 1 eq. base,6.7
same,pH of mixture Final,[2]; RBC + 5 mM glutathione + 1 eq. base + 0.2 mM PIC-1,6.7
same,pH of mixture Post quencher,[2]; RBC + 5 mM glutathione + 2 eq. base,6.9
same,pH of mixture Final,[2]; RBC + 5 mM glutathione + 2 eq. base + 0.2 mM PIC-1,6.9
same,pH of mixture Post quencher,[2]; RBC + 10 mM acidic glutathione,6.4
same,pH of mixture Final,[2]; RBC + 10 mM acidic glutathione + 0.2 mM PIC-1,6.4
same,pH of mixture Post quencher,[2]; RBC + 10 mM glutathione + 1 eq. base,6.7
same,pH of mixture Final,[2]; RBC + 10 mM glutathione + 1 eq. base + 0.2 mM PIC-1,6.7
same,pH of mixture Post quencher,[2]; RBC + 10 mM glutathione + 2 eq. base,7.2
same,pH of mixture Final,[2]; RBC + 10 mM glutathione + 2 eq. base + 0.2 mM PIC-1,7.0
same,pH of mixture Post quencher,[2]; RBC + 20 mM acidic glutathione,6.1
same,pH of mixture Final,[2]; RBC + 20 mM acidic glutathione + 0.2 mM PIC-1,6.1
same,pH of mixture Post quencher,[2]; RBC + 20 mM glutathione + 1 eq. base,6.7
same,pH of mixture Final,[2]; RBC + 20 mM glutathione + 1 eq. base + 0.2 mM PIC-1,6.7
same,pH of mixture Post quencher,[2]; RBC + 20 mM glutathione + 2 eq. base,7.4
same,pH of mixture Final,[2]; RBC + 20 mM glutathione + 2 eq. base + 0.2 mM PIC-1,7.2
same,pH of final mixture,[2]; Table 10: RBC + 2 mM acidic quencher + 0.2 mM PIC-1,6.9
same,pH of final mixture,[2]; Table 10: RBC + 20 mM quencher + 2 eq. base + 0.2 mM PIC-1,7.7
same,pH of solution,[2]; glutathione solution neutralized with 2 equivalents of sodium hydroxide,approximately 9.5
same,pH of solution,[2]; solution of the protonated glutathione,approximately 3
